Measurements taken from ChEMBL document CHEMBL1145681, “Inhibitory effect of dehydroevodiamine and evodiamine on nitric oxide production in cultured murine macrophages” (J Nat Prod, 1997).
Active and inactive are the calls of the source. The rule behind the calls is not given here.

How the values were obtained:
RAW264.7 [1] = assay: Cytotoxicity against IFN-gamma/LPS-stimulated mouse RAW264.7 cells at 10 to 100 uM treated after 2 hrs of LPS addition measured after 19 hrs by MTT assay; type: cell-based; settings: raw264.7, 19 h
RAW264.7 [2] = assay: Antiinflammatory activity in IFN-gamma/LPS-stimulated mouse RAW264.7 cells assessed as NO production at 50 uM treated after 3 hrs of IFN-gamma stimulation and before 30 mins of LPS addition measured after 19 hrs relative to control
RAW264.7 [3] = assay: Antiinflammatory activity in IFN-gamma/LPS-stimulated mouse RAW264.7 cells assessed as inhibition of NO production at 10 uM treated after 2 hrs of LPS addition measured after 19 hrs relative to control; values are per cent of control
RAW264.7 [4] = assay: Antiinflammatory activity in IFN-gamma/LPS-stimulated mouse RAW264.7 cells assessed as inhibition of NO production at 50 uM treated after 2 hrs of LPS addition measured after 19 hrs relative to control; values are per cent of control
RAW264.7 [5] = assay: Antiinflammatory activity in IFN-gamma/LPS-stimulated mouse RAW264.7 cells assessed as inhibition of NO production at 10 uM treated before 30 mins of IFN-gamma stimulation in presence of LPS measured after 19 hrs relative to control; type: functional; settings: values are per cent of control
RAW264.7 [6] = assay: Antiinflammatory activity in IFN-gamma/LPS-stimulated mouse RAW264.7 cells assessed as NO production at 100 uM treated after 3 hrs of IFN-gamma stimulation and before 30 mins of LPS addition measured after 19 hrs relative to control
RAW264.7 [7] = assay: Antiinflammatory activity in IFN-gamma/LPS-stimulated mouse RAW264.7 cells assessed as inhibition of NO production at 50 uM treated before 30 mins of IFN-gamma stimulation in presence of LPS measured after 19 hrs relative to control; type: functional; settings: values are per cent of control
RAW264.7 [8] = assay: Antiinflammatory activity in IFN-gamma/LPS-stimulated mouse RAW264.7 cells assessed as inhibition of NO production at 50 uM treated after 18.5 hrs of LPS addition measured after 19 hrs relative to control; type: functional, cell-based
RAW264.7 [9] = assay: Antiinflammatory activity in IFN-gamma/LPS-stimulated mouse RAW264.7 cells assessed as inhibition of NO production at 100 uM treated before 30 mins of IFN-gamma stimulation in presence of LPS measured after 19 hrs relative to control; type: functional; settings: values are per cent of control
RAW264.7 [10] = assay: Antiinflammatory activity in IFN-gamma/LPS-stimulated mouse RAW264.7 cells assessed as inhibition of NO production at 30 uM treated after 18.5 hrs of LPS addition measured after 19 hrs relative to control; type: functional, cell-based
RAW264.7 [11] = assay: Antiinflammatory activity in IFN-gamma/LPS-stimulated mouse RAW264.7 cells assessed as inhibition of NO production at 100 uM treated after 2 hrs of LPS addition measured after 19 hrs relative to control; values are per cent of control
RAW264.7 [12] = assay: Antiinflammatory activity in IFN-gamma/LPS-stimulated mouse RAW264.7 cells assessed as inhibition of NO production at 10 uM treated after 18.5 hrs of LPS addition measured after 19 hrs relative to control; type: functional, cell-based
RAW264.7 [13] = assay: Antiinflammatory activity in IFN-gamma/LPS-stimulated mouse RAW264.7 cells assessed as NO production at 10 uM treated after 3 hrs of IFN-gamma stimulation and before 30 mins of LPS addition measured after 19 hrs relative to control
RAW264.7 [14] = assay: Cytotoxicity against IFN-gamma/LPS-stimulated mouse RAW264.7 cells at 10 to 100 uM treated after 3 hrs of IFN-gamma stimulation and before 30 mins of LPS addition measured after 19 hrs by MTT assay; type: cell-based; settings: raw264.7, 19 h
RAW264.7 [15] = assay: Cytotoxicity against IFN-gamma/LPS-stimulated mouse RAW264.7 cells at 10 to 100 uM treated after 18.5 hrs of LPS addition measured after 19 hrs by MTT assay; type: cell-based; settings: raw264.7, 19 h
RAW264.7 [16] = assay: Antiinflammatory activity in IFN-gamma/LPS-stimulated mouse RAW264.7 cells assessed as inhibition of NO production at 30 uM treated before 30 mins of IFN-gamma stimulation in presence of LPS measured after 19 hrs relative to control; type: functional
RAW264.7 [17] = assay: Antiinflammatory activity in IFN-gamma/LPS-stimulated mouse RAW264.7 cells assessed as inhibition of NO production at 100 uM treated after 3 hrs of IFN-gamma stimulation and before 30 mins of LPS addition measured after 19 hrs relative to control; type: functional
RAW264.7 [18] = assay: Antiinflammatory activity in IFN-gamma/LPS-stimulated mouse RAW264.7 cells assessed as inhibition of NO production at 30 uM treated after 3 hrs of IFN-gamma stimulation and before 30 mins of LPS addition measured after 19 hrs relative to control; type: functional, cell-based
RAW264.7 [19] = assay: Antiinflammatory activity in IFN-gamma/LPS-stimulated mouse RAW264.7 cells assessed as inhibition of NO production at 50 uM treated after 3 hrs of IFN-gamma stimulation and before 30 mins of LPS addition measured after 19 hrs relative to control; type: functional

SMILES | Activity (RAW264.7 [1]) | level, % of control at 50 µM (RAW264.7 [2]) | NO level, % of control (RAW264.7 [3]) | NO level, % of control (RAW264.7 [4]) | response, % of control at 10 µM (RAW264.7 [5]) | level, % of control at 100 µM (RAW264.7 [6]) | response, % of control at 50 µM (RAW264.7 [7]) | Activity (RAW264.7 [8]) | response, % of control at 100 µM (RAW264.7 [9]) | Activity (RAW264.7 [10]) | NO level, % of control (RAW264.7 [11]) | Activity (RAW264.7 [12]) | level, % of control at 10 µM (RAW264.7 [13]) | Activity (RAW264.7 [14]) | Activity (RAW264.7 [15]) | inhibition at 30 µM (RAW264.7 [16]) | Activity (RAW264.7 [17]) | Activity (RAW264.7 [18]) | Activity (RAW264.7 [19])
C[n+]1c2n(c(=O)c3ccccc31)CCc1c-2[nH]c2ccccc12 [DEHYDROEVODIAMINE] | Non-toxic | 78.1% | 84.3% | 77% | 80.6% | 23.2% | 74.2% | inactive | 44% | inactive | 24.2% | inactive | 86.1% | Not Active |  |  |  |  | 
CN1c2ccccc2C(=O)N2CCc3c([nH]c4ccccc34)[C@H]21 [EVODIAMINE] | Non-toxic |  |  |  |  |  |  |  |  |  |  |  |  | Not Active | Non-toxic |  |  |  | 
CN1c2ccccc2C(=O)N2CCc3c([nH]c4ccccc34)[C@@H]21 [EVODIAMINE] |  |  |  |  | 79.5% |  | 68.3% |  |  |  |  |  |  |  |  | 50.6% | inactive | inactive | inactive
